Each structure is given as a SMILES string.

This note sets out measurements from article PMC12311606, “An efficient brain delivery system co-loaded with multiple components of Salvia miltiorrhiza for synergistic treatment of ischemic stroke” (Materials Today Bio, 2025).

Series [1] can be described thus: In vitro drug release in 1 % SDS (dialysis, HPLC). As to conditions: release from W/HPDA/L, 1 % SDS pH 6.5–6.8. It is filed as physicochemical. On the procedure: Five compounds were measured by HPLC at 0.5, 1, 2, 4, 8, 12 and 24 h. In order to elucidate the release mechanism of W/HPDA/L, release kinetic models (Ritger-Peppas model) were employed to fit the data available.

Series [2] can be described thus: Adsorption kinetic model fitting of the five components on the carrier. Type of series: physicochemical. The arrangement: k, pseudo-first order: unit not given beside the values. On the procedure:
Preparation of W/HPDA/L nanoparticles: Briefly, 0.5 mL of TEOS were added over a stirred solution of 2 mL of NH3∙H2O solution in 100 mL of ethanol. The reaction mixture was vigorously stirred at room temperature for 3 h to obtain SiO2 nanoparticles. Then, 1.5 mL of APTES were dropped to the reaction mixture. Finally, SiO2-NH2 nanoparticles were collected by centrifugation at 10000 rpm for 10 min, then washed twice with ethanol and resuspended in ethanol for further use. As for the preparation of W@SiO2 nanoparticles, 1 mL of SiO2-NH2 nanoparticles and 4 mL of water components solution (1 mg RA and 12 mg SAB) were first mixed together. Under stirring for 12 h, the resultant W@SiO2 nanoparticles were acquired by centrifugation (10000 rpm, 10 min) and washed thrice with DI water. The total content of water-soluble in the supernatant (free RA and SAB) were determined by HPLC. W@SiO2 nanoparticles obtained by centrifugation were resuspended with Tris-HCl solution containing dopamine hydrochloride. PDA was prepared according to our precious report. This was followed by the addition of 2 mL of etching solution. Then, through centrifugation (12000 rpm, 5 min) and washing with ultrapure water three times, W/HPDA nanoparticles were acquired for later use. After dissolving 6 mg of lipid-soluble components (1 mg CPT, 2.5 mg TSI and 2.5 mg TSA) in 4 mL of ethanol, it was added to 1 mL of W/HPDA nanoparticles dispersed solution. After 12 h of stirring at room temperature, W/HPDA/L nanoparticles were collected by centrifugation and subsequently dispersed in water for further use. Similarly, HPDA was synthesized as previously described. 13 mg of water-soluble components solution (1 mg RA and 12 mg SAB) and 6 mg of lipid-soluble components (1 mg CPT, 2.5 mg TSI and 2.5 mg TSA) were dissolved in 4 mL PBS containing 0.1 % DMSO and added to 3 mL HPDA aqueous dispersion. The mixture was then stirred at room temperature for 12 h, centrifuged, and washed to obtain HPDA/WL nanoparticles. The total content of lipid-soluble in the supernatant (free CPT, TSI and TSA) were determined by HPLC.
An adsorption kinetic model was used to fit the effect of adsorption time on the adsorption performance of adsorbents, further speculating the mechanism of adsorption. The results of the adsorption kinetics of five components were fitted using the pseudo-first-order and pseudo-second-order model, respectively.

In series [3] the test system is ZO-1. Nature of the series: ZO-1 tension by FRET-based tension probes in bEnd.3 cells. As to conditions: 15 min treatment, then removal and 15 min observation. Type of series: cell-based. The protocol: (§1) 6 × 10^4 bEnd.3 cells were seeded in the donor chamber of 24-well transwell inserts. […] The viability of bEnd.3 cells following borneol treatment was assessed using the Cell Counting Kit-8 (CCK-8) assay. We added 0.9 mL of PBS-based assay medium to blank 24-well culture plates and 0.2 mL of borneol (0, 100, 400 μM) to the apical side of the BBB layers. TEER was measured at 5, 10, and 15 min. Additionally, 100 nm silica nanoparticles and sodium fluorescein at the same concentrations were administered at three time points. […] The intracellular tension of the tight junction protein ZO-1 was evaluated using fluorescence resonance energy transfer (FRET)-based tension probes and cpstFRET analysis, as previously described. bEnd.3 cells were transfected with ZO-1 probes and incubated with 1000 μg/mL geneticin. After treating the cells with borneol for 15 min, the borneol was removed, and observations continued for an additional 15 min. Cells treated with Hanks' solution served as the control group. The cell images were taken with × 63 oil lens on a confocal microscope (SP5; Leica, Wetzlar, Germany). The CFP/FRET ratio was calculated using the equation 1/E = cerulean donor/venus acceptor.

Series [4] concerns bEnd.3 cells. The experiment in a line: Viability of bEnd.3 cells following borneol treatment (CCK-8). As to conditions: 5 to 500 μmol/l. It is filed as cell-based. The protocol:
as §1

In series [5] the test system is bEnd.3 cells. Nature of the series: In vitro BBB permeability (bEnd.3 transwell model). Type of series: cell-based. As to conditions: 100 and 400 μmol borneol. On the procedure: as §1, with “TEER was measured at 5, 10, and 15 min.” left out, “cpstFRET” left out

With `C[C@H]1COC2=C1C(=O)C(=O)c1c2ccc2c1CCCC2(C)C` [CPT, cryptotanshinone], in series [1], the “Ritger-Peppas release exponent n” value is “n = 0.39” and the “Ritger-Peppas release model coefficient (y = k t^n)” value is “y = 19.26t^n”. For the same compound, in series [2], the “Qe, pseudo-first order” value is reported as 4.60 mg/g; the “Qe, pseudo-second order” value was 5.06 mg/g; the “k, pseudo-first order” value is 0.76; the “k, pseudo-second order” value is reported as 0.14.
With `N[C@@H](CCC(=O)O)C(=O)O` [Glu, Glutamate, reference compound], the “ZO1 tension (CFP/FRET)” value in series [3] is “increased and continued to rise even 15 min after Glu removal”.
Turning to `O=C(/C=C/c1ccc(O)c(O)c1)O[C@H](Cc1ccc(O)c(O)c1)C(=O)O` [RA, rosmarinic acid], in series [1], the “Ritger-Peppas release exponent n” value is listed as “n = 0.83” and the “Ritger-Peppas release model coefficient (y = k t^n)” value is “y = 6.28t^n”. Besides, in series [2], the “Qe, pseudo-first order” value is 6.23 mg/g; the “Qe, pseudo-second order” value is on record as 7.78 mg/g; the “k, pseudo-first order” value turned out to be 0.29; the “k, pseudo-second order” value came to 0.03.
In the case of `O=C(/C=C/c1ccc(O)c2c1[C@H](C(=O)O[C@H](Cc1ccc(O)c(O)c1)C(=O)O)[C@@H](c1ccc(O)c(O)c1)O2)O[C@H](Cc1ccc(O)c(O)c1)C(=O)O` [SAB, salvianolic acid B], in series [1], the “Ritger-Peppas release exponent n” value is given as “n = 0.78” and the “Ritger-Peppas release model coefficient (y = k t^n)” value is recorded as “y = 8.41t^n”. Also, in series [2], the “Qe, pseudo-first order” value is 18.27 mg/g; the “Qe, pseudo-second order” value is recorded as 21.95 mg/g; the “k, pseudo-first order” value came to 0.27; the “k, pseudo-second order” value is listed as 0.01.
Turning to `Cc1coc2c1C(=O)C(=O)c1c-2ccc2c1CCCC2(C)C` [TSA, tanshinone IIA], in series [1], the “Ritger-Peppas release exponent n” value is recorded as “n = 0.37” and the “Ritger-Peppas release model coefficient (y = k t^n)” value is listed as “y = 24.68t^n”. Also, in series [2], the “Qe, pseudo-first order” value turned out to be 4.14 mg/g; the “Qe, pseudo-second order” value is 4.74 mg/g; the “k, pseudo-first order” value is 0.89; the “k, pseudo-second order” value stood at 0.21.
For the compound `Cc1coc2c1C(=O)C(=O)c1c-2ccc2c(C)cccc12` [TSI, tanshinone I], in series [1], the “Ritger-Peppas release exponent n” value was “n = 0.35” and the “Ritger-Peppas release model coefficient (y = k t^n)” value is given as “y = 27.02t^n”. Besides, in series [2], the “Qe, pseudo-first order” value is given as 4.50 mg/g; the “Qe, pseudo-second order” value is reported as 5.21 mg/g; the “k, pseudo-first order” value was 0.53; the “k, pseudo-second order” value worked out at 0.16.
For `CC1(C)C2CCC1(C)C(O)C2` (stereo not shown) [borneol], in series [4], the “Cytotoxic effects on bEnd.3 cells” value is recorded as “no cytotoxic effects”. Further, in series [3], the “ZO1 tension (CFP/FRET)” value is recorded as “increased but decreased after 15 min of borneol removal”. Besides, the “Time at which maximum BBB permeability is reached” value in series [5] is 10 min.
